Drawing on US8969565B2, “Imidazo[1,2-b]pyridazine-based compounds, compositions comprising them, and methods of their use” (Lexicon Pharmaceuticals, Inc., priority 2012, dated 2015), this text covers IC50 for 40 compounds.

This test concerns the target T1, AAK1 (Homo sapiens, UniProt Q2M2I8).
T1 construct: HA; expressed in transfected cells; host or cells: HEK293F
Nature of the test: HEK281 cell-based assay (phospho-mu2 Western blot in transfected HEK293F cells). The settings on record: 3 hours incubation, read-out: CBA IC50. In short, it runs like this:
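After 3 hours at 37° C. with compound (five 3-fold-spaced concentrations, DMEM+0.5% FBS), transiently transfected HEK293F cells expressing full-length human AAK1 and Flag-tagged mu2 were lysed. mu2 phosphorylation was read by anti-phospho-mu2 immunoblot, normalized against total mu2 by anti-Flag blot.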

SMILES strings stand for the structures.

T1 sequence (Q2M2I8 1-863 isoform Q2M2I8-2): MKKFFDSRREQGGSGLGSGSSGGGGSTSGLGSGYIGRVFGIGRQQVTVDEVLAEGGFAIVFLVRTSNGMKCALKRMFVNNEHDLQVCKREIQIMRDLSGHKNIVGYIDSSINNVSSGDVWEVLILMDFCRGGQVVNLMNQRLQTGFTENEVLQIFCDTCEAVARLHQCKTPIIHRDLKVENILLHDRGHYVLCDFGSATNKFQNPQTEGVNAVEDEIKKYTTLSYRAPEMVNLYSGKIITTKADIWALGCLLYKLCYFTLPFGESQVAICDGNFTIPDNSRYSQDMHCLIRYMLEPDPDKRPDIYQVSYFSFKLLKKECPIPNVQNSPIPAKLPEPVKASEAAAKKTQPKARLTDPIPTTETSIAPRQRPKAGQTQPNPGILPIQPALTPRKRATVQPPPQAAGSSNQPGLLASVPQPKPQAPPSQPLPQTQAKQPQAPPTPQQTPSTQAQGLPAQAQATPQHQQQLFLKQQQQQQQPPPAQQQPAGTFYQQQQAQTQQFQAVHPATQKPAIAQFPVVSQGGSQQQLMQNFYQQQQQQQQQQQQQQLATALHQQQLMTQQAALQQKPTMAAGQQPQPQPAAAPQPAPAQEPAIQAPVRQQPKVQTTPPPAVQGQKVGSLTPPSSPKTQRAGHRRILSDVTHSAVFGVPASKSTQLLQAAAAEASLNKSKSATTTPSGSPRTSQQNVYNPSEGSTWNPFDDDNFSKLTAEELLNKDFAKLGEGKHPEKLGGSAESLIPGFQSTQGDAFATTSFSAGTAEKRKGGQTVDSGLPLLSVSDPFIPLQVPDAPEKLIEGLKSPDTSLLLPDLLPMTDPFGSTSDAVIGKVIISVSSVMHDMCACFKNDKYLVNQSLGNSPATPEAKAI

In the case of `COC(=O)N1CCC[C@H]1CNc1ccc2ncc(-c3ccc(CN)cc3)n2n1` [(S)-methyl 2-(((3-(4-(aminomethyl)phenyl)imidazo[1,2-b]pyridazin-6-yl)amino)methyl)pyrrolidine-1-carboxylate], the IC50 was at most 0.1 µM.
On to `COC(=O)N1CCC[C@H]1CNc1ccc2ncc(Br)n2n1` [(S)-methyl 2-(((3-bromoimidazo[1,2-b]pyridazin-6-yl)amino)methyl)pyrrolidine-1-carboxylate], for which the half-maximal inhibitory concentration (IC50) was at most 1 µM.
The result for `CC(C)(C)COC(=O)N1CCC[C@H]1CNc1ccc2ncc(Br)n2n1` [(S)-neopentyl 2-(((3-bromoimidazo[1,2-b]pyridazin-6-yl)amino)methyl)pyrrolidine-1-carboxylate] reads at most 0.1 µM; that for `COc1ccccc1-c1cnc2ccc(NC[C@@H]3CCCN3C(=O)OC(C)(C)C)nn12` [(S)-tert-butyl 2-(((3-(2-methoxyphenyl)imidazo[1,2-b]pyridazin-6-yl)amino)methyl)pyrrolidine-1-carboxylate], at most 0.01 µM; that for `COc1cnccc1-c1cnc2ccc(NC[C@@H]3CCCCN3C(=O)OC(C)(C)C)nn12` [(S)-tert-butyl 2-(((3-(3-methoxypyridin-4-yl)imidazo[1,2-b]pyridazin-6-yl)amino)methyl)piperidine-1-carboxylate], at most 0.1 µM.
The result for `CC(C)(C)OC(=O)N1CCCC[C@H]1CNc1ccc2ncc(-c3ccc(CN)cc3)n2n1` [(S)-tert-butyl 2-(((3-(4-(aminomethyl)phenyl)imidazo[1,2-b]pyridazin-6-yl)amino)methyl)piperidine-1-carboxylate] reads at most 0.01 µM; that for `CC(C)(C)OC(=O)N1CCCC[C@H]1CNc1ccc2ncc(-c3ccncc3)n2n1` [(S)-tert-butyl 2-(((3-(pyridin-4-yl)imidazo[1,2-b]pyridazin-6-yl)amino)methyl)piperidine-1-carboxylate], at most 0.1 µM; that for `CC(C)(C)OC(=O)N1CCC[C@H]1CNc1ccc2ncc(C(F)(F)F)n2n1` [(S)-tert-butyl 2-(((3-(trifluoromethyl)imidazo[1,2-b]pyridazin-6-yl)amino)methyl)pyrrolidine-1-carboxylate], at most 0.1 µM.
To `CC(C)(C)OC(=O)N1CCC[C@H]1CNc1ccc2ncc(Br)n2n1` [(S)-tert-butyl 2-(((3-bromoimidazo[1,2-b]pyridazin-6-yl)amino)methyl)pyrrolidine-1-carboxylate] belongs at most 0.1 µM.
For the compound `CC(C)(C)OC(=O)N1CCC[C@H]1CNc1ccc2ncc(Cl)n2n1` [(S)-tert-butyl 2-(((3-chloroimidazo[1,2-b]pyridazin-6-yl)amino)methyl)pyrrolidine-1-carboxylate], the IC50 was at most 0.1 µM.
The result for `CCc1cnc2ccc(NC[C@@H]3CCCN3C(=O)OC(C)(C)C)nn12` [(S)-tert-butyl 2-(((3-ethylimidazo[1,2-b]pyridazin-6-yl)amino)methyl)pyrrolidine-1-carboxylate] reads at most 0.1 µM; that for `CC(C)(C)OC(=O)N1CCC[C@H]1CNc1ccc2ncc(I)n2n1` [(S)-tert-butyl 2-(((3-iodoimidazo[1,2-b]pyridazin-6-yl)amino)methyl)pyrrolidine-1-carboxylate], at most 0.01 µM; that for `COc1cnccc1-c1cnc2ccc(NC[C@@H]3CCN(C(=O)OC(C)(C)C)C3)nn12` [(S)-tert-butyl 3-(((3-(3-methoxypyridin-4-yl)imidazo[1,2-b]pyridazin-6-yl)amino)methyl)pyrrolidine-1-carboxylate], at most 1 µM.
The result for `CC(C)(C)OC(=O)N1CC[C@@H](CNc2ccc3ncc(-c4ccc(CN)cc4)n3n2)C1` [(S)-tert-butyl 3-(((3-(4-(aminomethyl)phenyl)imidazo[1,2-b]pyridazin-6-yl)amino)methyl)pyrrolidine-1-carboxylate] reads at most 0.1 µM.
As for `CC(C)(C)OC(=O)N1CC[C@@H](CNc2ccc3ncc(Br)n3n2)C1` [(S)-tert-butyl 3-(((3-bromoimidazo[1,2-b]pyridazin-6-yl)amino)methyl)pyrrolidine-1-carboxylate], the IC50 is at most 1 µM.
For the compound `CCCCNc1ccc2ncc(-c3ccc4cnccc4c3)n2n1` [Butyl-(3-isoquinolin-6-yl-imidazo[1,2-b]pyridazin-6-yl)amine], the IC50 was at most 0.1 µM.
To `CCOC(=O)CCCNc1ccc2ncc(-c3ccc(C(C)=O)s3)n2n1` [Ethyl 4-((3-(5-acetylthiophen-2-yl)imidazo[1,2-b]pyridazin-6-yl)amino)butanoate] belongs at most 0.1 µM; to `CN(CCNc1ccc2ncc(-c3ccc(CN)cc3)n2n1)c1ccccc1` [N1-(3-(4-(aminomethyl)phenyl)imidazo[1,2-b]pyridazin-6-yl)-N2-methyl-N2-phenylethane-1,2-diamine], at most 0.1 µM; to `CN(CCCNc1ccc2ncc(-c3ccc(CN)cc3)n2n1)c1ccccc1` [N1-(3-(4-(aminomethyl)phenyl)imidazo[1,2-b]pyridazin-6-yl)-N3-methyl-N3-phenylpropane-1,3-diamine], at most 0.1 µM.
The result for `CN(CCCNc1ccc2ncc(-c3ccc(CN)s3)n2n1)c1ccccc1` [N1-(3-(5-(aminomethyl)thiophen-2-yl)imidazo[1,2-b]pyridazin-6-yl)-N3-methyl-N3-phenylpropane-1,3-diamine] reads at most 1 µM.
`CC(C)(C)CCNc1ccc2ncc(-c3ccc(CNCCN)cc3)n2n1` [N1-(4-(6-((3,3-dimethylbutyl)amino)imidazo[1,2-b]pyridazin-3-yl)benzyl)ethane-1,2-diamine]: the concentration for half-maximal inhibition (IC50) is at most 1 µM.
The result for `CCCCNc1ccc2ncc(-c3ccc(CNCCN)cc3)n2n1` [N1-(4-(6-(butylamino)imidazo[1,2-b]pyridazin-3-yl)benzyl)ethane-1,2-diamine] reads at most 1 µM.
The result for `CCCCNc1ccc2ncc(-c3ccc(CNCCCN)cc3)n2n1` [N1-(4-(6-(butylamino)imidazo[1,2-b]pyridazin-3-yl)benzyl)propane-1,3-diamine] reads at most 1 µM; that for `CN(CCNc1ccc2ncc(-c3ccc(C#N)cc3)n2n1)C(=O)CC(C)(C)C` [N-(2-((3-(4-cyanophenyl)imidazo[1,2-b]pyridazin-6-yl)amino)ethyl)-N,3,3-trimethylbutanamide], at most 0.1 µM.
To `CN(CCNc1ccc2ncc(-c3ccc(C#N)cc3)n2n1)C(=O)C(C)(C)C` [N-(2-((3-(4-cyanophenyl)imidazo[1,2-b]pyridazin-6-yl)amino)ethyl)-N-methylpivalamide] belongs at most 0.1 µM; to `COc1ncccc1-c1cnc2ccc(NCCOC3CCCC3)nn12` [N-(2-(cyclopentyloxy)ethyl)-3-(2-methoxypyridin-3-yl)imidazo[1,2-b]pyridazin-6-amine], at most 0.1 µM; to `Fc1cnccc1-c1cnc2ccc(NCCOC3CCCC3)nn12` [N-(2-(cyclopentyloxy)ethyl)-3-(3-fluoropyridin-4-yl)imidazo[1,2-b]pyridazin-6-amine], at most 0.1 µM.
As for `COc1cnccc1-c1cnc2ccc(NCCOC3CCCC3)nn12` [N-(2-(cyclopentyloxy)ethyl)-3-(3-methoxypyridin-4-yl)imidazo[1,2-b]pyridazin-6-amine], the half-maximal inhibitory concentration (IC50) was at most 1 µM.
The result for `c1cc(C2CCCN2)ccc1-c1cnc2ccc(NCCOC3CCCC3)nn12` (stereo not shown) [N-(2-(cyclopentyloxy)ethyl)-3-(4-(pyrrolidin-2-yl)phenyl)imidazo[1,2-b]pyridazin-6-amine] reads at most 0.1 µM; that for `CCN(CC)CCNC(=O)c1ccc(-c2cnc3ccc(NCCOCC(C)C)nn23)cc1` [N-(2-(diethylamino)ethyl)-4-(6-((2-isobutoxyethyl)amino)imidazo[1,2-b]pyridazin-3-yl)benzamide], at most 0.1 µM; that for `CCN(CC)CCNC(=O)c1ccc(-c2cnc3ccc(NCCOC(C)C)nn23)cc1` [N-(2-(diethylamino)ethyl)-4-(6-((2-isopropoxyethyl)amino)imidazo[1,2-b]pyridazin-3-yl)benzamide], at most 0.1 µM.
For the compound `CNCCNC(=O)c1ccc(-c2cnc3ccc(NCCCN(C)C(=O)C(C)(C)C)nn23)cc1` [N-(2-(methylamino)ethyl)-4-(6-((3-(N-methylpivalamido)propyl)amino)imidazo[1,2-b]pyridazin-3-yl)benzamide], the IC50 is at most 1 µM.
The result for `COc1cnccc1-c1cnc2ccc(NCCOC(C)(C)C)nn12` [N-(2-(tert-butoxy)ethyl)-3-(3-methoxypyridin-4-yl)imidazo[1,2-b]pyridazin-6-amine] reads at most 0.1 µM.
To `CC(C)(C)OCCNc1ccc2ncc(-c3ccc(C4CCCN4)cc3)n2n1` (stereo not shown) [N-(2-(tert-butoxy)ethyl)-3-(4-(pyrrolidin-2-yl)phenyl)imidazo[1,2-b]pyridazin-6-amine] belongs at most 0.1 µM; to `CC(C)(C)CCNc1ccc2ncc(-c3ccc(C(=O)NCCN)cc3)n2n1` [N-(2-aminoethyl)-4-(6-((3,3-dimethylbutyl)amino)imidazo[1,2-b]pyridazin-3-yl)benzamide], at most 1 µM.
The result for `CC(C)(C)OCCCNc1ccc2ncc(-c3ccc(C(=O)NCCN)cc3)n2n1` [N-(2-aminoethyl)-4-(6-((3-(tert-butoxy)propyl)amino)imidazo[1,2-b]pyridazin-3-yl)benzamide] reads at most 1 µM.
For the compound `NCCNC(=O)c1ccc(-c2cnc3ccc(NCCCc4ccccc4)nn23)cc1` [N-(2-aminoethyl)-4-(6-((3-phenylpropyl)amino)imidazo[1,2-b]pyridazin-3-yl)benzamide], the half-maximal inhibitory concentration (IC50) is at most 1 µM.
Consider `CCCCNc1ccc2ncc(-c3ccc(C(=O)NCCN)c(F)c3)n2n1` [N-(2-aminoethyl)-4-(6-(butylamino)imidazo[1,2-b]pyridazin-3-yl)-2-fluorobenzamide], for which the IC50 is at most 0.1 µM.
The result for `CCCCNc1ccc2ncc(-c3ccc(C(=O)NCCN)c(OC)c3)n2n1` [N-(2-aminoethyl)-4-(6-(butylamino)imidazo[1,2-b]pyridazin-3-yl)-2-methoxybenzamide] reads at most 1 µM; that for `CCCCNc1ccc2ncc(-c3ccc(C(=O)NCCN)cc3F)n2n1` [N-(2-aminoethyl)-4-(6-(butylamino)imidazo[1,2-b]pyridazin-3-yl)-3-fluorobenzamide], at most 1 µM.
